# Test results published in PubChem BioAssay (NCI).
#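 Each compound was tested at five concentrations against cells in 96-well plates for 48 hours. TGI denotes the concentration required for complete inhibition of growth.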
# Columns and labels:
# Experiment in all cases: inhibition of tumour cell growth, NCI panel, 48 h
# [1] = system: HT29 colon
# [2] = system: HOP-92 NSCLC
# [3] = system: SF-268 CNS
# [4] = system: NCI-H23 lung
# [5] = system: HCT-116 colon
# [6] = system: SR leukemia
# [7] = system: 786-0 renal
# [8] = system: MOLT-4 leukemia
# [9] = system: HL-60(TB) leukemia
# [10] = system: RPMI-8226 leukemia
# [11] = system: NCI-H226 lung
# [12] = system: OVCAR-3 ovarian
# [13] = system: DU-145 prostate
# [14] = system: UO-31 renal
# [15] = system: SK-MEL-28 melanoma
# [16] = system: MDA-MB-231 breast
# [17] = system: SK-MEL-2 melanoma
# [18] = system: OVCAR-4 ovarian
# [19] = system: T-47D breast
# [20] = system: UACC-257 melanoma
# [21] = system: SF-295 CNS
# [22] = system: HOP-62 NSCLC
# [23] = system: IGROV1 ovarian
# [24] = system: SN12C renal
# [25] = system: PC-3 prostate
# [26] = system: UACC-62 melanoma
# [27] = system: TK-10 renal
# [28] = system: MALME-3M melanoma
# [29] = system: COLO 205 colon
# [30] = system: SK-OV-3 ovarian
# [31] = system: LOX IMVI melanoma
# [32] = system: NCI-H460 lung
# [33] = system: OVCAR-8 ovarian
# [34] = system: EKVX NSCLC
# [35] = system: SW-620 colon
# [36] = system: BT-549 breast
# [37] = system: HCT-15 colon
# [38] = system: A498 renal
# [39] = system: M14 melanoma
# [40] = system: MCF7 breast
# [41] = system: K-562 leukemia
# [42] = system: MDA-N
# [43] = system: SNB-19 CNS
# [44] = system: HS 578T breast
# [45] = system: NCI/ADR-RES ovarian
# [46] = system: OVCAR-5 ovarian
# [47] = system: A549 NSCLC
# [48] = system: CCRF-CEM leukemia
# [49] = system: SNB-75 CNS
# [50] = system: HCC-2998 colon
# [51] = system: CAKI-1 renal
# [52] = system: SF-539 CNS
# [53] = system: U251 CNS
# [54] = system: KM12 colon
# [55] = system: MDA-MB-435
# [56] = system: ACHN renal
# [57] = system: RXF 393 renal
# [58] = system: SK-MEL-5 melanoma
smiles,measurement,setting,value
CCOC(=O)c1ccc(Nc2cnc3ccc(C(F)(F)F)cc3n2)cc1,TGI,[1],24.1 µM
same,TGI,[2],23.5 µM
same,TGI,[3],34 µM
same,TGI,[4],28.5 µM
same,TGI,[5],28 µM
same,TGI,[6],52.6 µM
same,TGI,[7],26.8 µM
same,TGI,[8],24.5 µM
same,TGI,[9],37.7 µM
same,TGI,[10],71.1 µM
same,TGI,[11],35.9 µM
same,TGI,[12],44.8 µM
same,TGI,[13],47.7 µM
same,TGI,[14],48.6 µM
same,TGI,[15],43 µM
same,TGI,[16],43.7 µM
same,TGI,[17],33.8 µM
same,TGI,[18],32 µM
same,TGI,[19],46.7 µM
same,TGI,[20],56 µM
same,TGI,[21],50.6 µM
same,TGI,[22],46.6 µM
same,TGI,[23],30.4 µM
same,TGI,[24],27.2 µM
same,TGI,[25],55.5 µM
same,TGI,[26],33.5 µM
same,TGI,[27],26.9 µM
same,TGI,[28],79.2 µM
same,TGI,[29],29.3 µM
same,TGI,[30],> 100 µM
same,TGI,[31],29.3 µM
same,TGI,[32],27.2 µM
same,TGI,[33],26 µM
same,TGI,[34],58.4 µM
same,TGI,[35],31.7 µM
same,TGI,[36],34 µM
same,TGI,[37],35.5 µM
same,TGI,[38],33.9 µM
same,TGI,[39],> 100 µM
same,TGI,[40],67.1 µM
same,TGI,[41],53.7 µM
same,TGI,[42],44.6 µM
same,TGI,[43],84.7 µM
same,TGI,[44],59.1 µM
same,TGI,[45],30.8 µM
same,TGI,[46],74.7 µM
same,TGI,[47],32.3 µM
same,TGI,[48],36.6 µM
same,TGI,[49],42.8 µM
same,TGI,[50],26.7 µM
same,TGI,[51],30.7 µM
same,TGI,[52],63.4 µM
same,TGI,[53],31.8 µM
same,TGI,[54],25.8 µM
same,TGI,[55],61.8 µM
same,TGI,[56],28.5 µM
same,TGI,[57],25.8 µM
same,TGI,[58],31.2 µM
Cc1cc(-c2ccc(C(=O)C(c3ccccc3)(c3ccccc3)c3ccccc3)[nH]2)on1,TGI,[1],25.6 µM
same,TGI,[2],51.8 µM
same,TGI,[3],68.7 µM
same,TGI,[4],32.4 µM
same,TGI,[5],27.9 µM
same,TGI,[6],29.7 µM
same,TGI,[7],40.7 µM
same,TGI,[8],84.9 µM
same,TGI,[9],26.1 µM
same,TGI,[10],48.1 µM
same,TGI,[11],42.5 µM
same,TGI,[12],> 100 µM
same,TGI,[13],50.3 µM
same,TGI,[14],30.2 µM
same,TGI,[15],52.9 µM
same,TGI,[16],49.6 µM
same,TGI,[17],36 µM
same,TGI,[18],88.1 µM
same,TGI,[19],> 100 µM
same,TGI,[20],> 100 µM
same,TGI,[21],97.7 µM
same,TGI,[22],53.5 µM
same,TGI,[23],73.9 µM
same,TGI,[24],40.6 µM
same,TGI,[25],49.1 µM
same,TGI,[26],37 µM
same,TGI,[28],> 100 µM
same,TGI,[29],42.2 µM
same,TGI,[30],> 100 µM
same,TGI,[31],53.3 µM
same,TGI,[32],21.6 µM
same,TGI,[33],42 µM
same,TGI,[34],39.9 µM
same,TGI,[35],75 µM
same,TGI,[36],45.8 µM
same,TGI,[37],41.6 µM
same,TGI,[38],> 100 µM
same,TGI,[39],71.8 µM
same,TGI,[40],> 100 µM
same,TGI,[41],> 100 µM
same,TGI,[42],41 µM
same,TGI,[43],58.4 µM
same,TGI,[44],> 100 µM
same,TGI,[45],36.8 µM
same,TGI,[46],> 100 µM
same,TGI,[47],45.6 µM
same,TGI,[48],52.9 µM
same,TGI,[49],> 100 µM
same,TGI,[50],25.6 µM
same,TGI,[51],69.5 µM
same,TGI,[52],> 100 µM
same,TGI,[53],37.1 µM
same,TGI,[54],47.5 µM
same,TGI,[55],67.7 µM
same,TGI,[57],9.46 µM
same,TGI,[58],29.4 µM
